What was measured:
Type in all cases: cell-based
[1] = test system: HL-60 cells (NADPH oxidase / respiratory burst); assay: Prevention of compactin-inhibition of FMLP-stimulated O2- formation in HL-60 cells by mevalonic acid and other supplements
Method: (§1) HL-60 cells were maintained in stationary culture in RPMI 1640 medium (Gibco, Grand Island, NY) containing 10% fetal bovine serum at 37° C in an atmosphere of 95 air and 5% CO2. The cells (about 8×10^5 /ml) were differentiated into neutrophil-like cells by treatment with 1.3% DMSO for six days (Harris, et al., J. Leukocyte Biol. 37: 407-422 (1985)). The cells were treated with the indicated levels of compactin or lovastatin by addition of a 1,000-fold concentrated stock solution to the appropriate concentration on day 4 of differentiation. […] In studies of the protective effect of mevalonic acid, the compound was added as the mevalonolactone (Sigma Chemical Co., St. Louis, MO) at a concentration of 1 mM to the cell culture on days 4 to 6. Similarly, cholesterol was added in the form of LDL prepared according to the method of Curtiss and Edgington (Curtiss, et al., J. Biol. Chem. 257: 15213-15221 (1991)) at a final concentration of 50 μg/ml; ubiquinone (Sigma Chemical Co., St. Louis, MO) was added as Coenzyme Q-10 at a final concentration of 0.5 mM; and dolichol (Sigma Chemical Co., St. Louis, MO) was added as a dispersion in phosphatidylcholine at a final concentration of 0.5 mM (Cutts, et al., J. Cell Physiol. 139: 550-555 (1989)).
O2 --formation by HL-60 cells was assessed by the SOD-sensitive reduction of cytochrome c. Cells were suspended at 1×10^7 /ml in Krebs-Ringer Hepes buffer with 5.5 mM glucose (KRHG) and 50-100μl of cells were added to a cuvette containing 100 μM cytochrome c (type III, Sigma Chemical Co., St. Louis, MO), ±300 μg/ml SOD (Sigma Chemical Co., St. Louis, MO) in 700-750 μl KRHG. Cytochalasin b (Sigma Chemical Co., St. Louis, MO) was added to a final concentration of 5 μg/ml, and the cells were incubated at 37° C. for five minutes while a stable baseline at a wavelength of 550 nm was obtained. O2 --formation was initiated by the addition of 1 μM N-formylmethionylleucylphenylalanine (FMLP; Sigma Chemical Co., St. Louis, MO) or 1μg/ml phorbol myristate acetate (PMA; Sigma Chemical Co., St. Louis, MO). Cytochrome c reduction at 550nm was continuously monitored and maximal rate and extent of the reaction calculated.
Inhibition of protein isoprenylation can interfere with LMWG function without inhibiting overall cellular function (Maltese, supra (1990)). Since compactin inhibits at the enzymatic step preceding mevalonic acid synthesis, one should be able to reverse effects of compactin due specifically to inhibition of this pathway by addition of exogenous mevalonic acid.

[2] = test system: peripheral blood neutrophils; assay: Respiratory burst of peripheral blood neutrophils in response to FMLP after short-term compactin; conditions: 10 μM, up to two hours
[3] = test system: NADPH oxidase in HL-60 cells; assay: Inhibition of NADPH oxidase activation / O2- generation in HL-60 cells (stimulus not singled out)
Method: as §1, with “(1989)). O2 --formation by HL-60 cells was assessed by the SOD-sensitive reduction of cytochrome c. Cells were suspended at 1×10^7 /ml in Krebs-Ringer Hepes buffer with 5.5 mM glucose (KRHG) and 50-100μl of cells were added to a cuvette containing 100 μM cytochrome c (type III, Sigma Chemical Co., St. Louis, MO), ±300 μg/ml SOD (Sigma Chemical Co., St. Louis, MO) in 700-750 μl KRHG. Cytochalasin b (Sigma Chemical Co., St. Louis, MO) was added to a final concentration of 5 μg/ml, and the cells were incubated at 37° C. for five minutes while a stable baseline at a wavelength of 550 nm was obtained. O2 --formation was initiated by the addition of 1 μM N-formylmethionylleucylphenylalanine (FMLP; Sigma Chemical Co., St. Louis, MO) or 1μg/ml phorbol myristate acetate (PMA; Sigma Chemical Co., St. Louis, MO). Cytochrome c reduction at 550nm was continuously monitored and maximal rate and extent of the reaction calculated.” for “(1989)).”

[4] = 4 μM compactin + 1 mM mevalonate
[5] = 10 μM compactin + 50 μg/ml cholesterol, n = 2
[6] = 10 μM compactin + 1 mM mevalonate

## CC[C@H](C)C(=O)O[C@H]1CCC=C2C=C[C@H](C)[C@H](CC[C@@H]3C[C@@H](O)CC(=O)O3)[C@H]21 [compactin]
[1]; 4 μM compactin
  FMLP-stimulated O2- formation, Extent: 28 ± 3.5 % of control
  FMLP-stimulated O2- formation, Rate: 43 ± 5.0 % of control
[1]; [4]
  FMLP-stimulated O2- formation, Extent: 96 ± 8.0 % of control
  FMLP-stimulated O2- formation, Rate: 97 ± 4.0 % of control
[1]; 10 μM compactin
  FMLP-stimulated O2- formation, Extent: 13 ± 0.4 % of control
  FMLP-stimulated O2- formation, Rate: 19 ± 3.9 % of control
[1]; [5]
  FMLP-stimulated O2- formation, Extent: 22 % of control
  FMLP-stimulated O2- formation, Rate: 28 % of control
[1]; [6]
  FMLP-stimulated O2- formation, Extent: 114 ± 1.6 % of control
  FMLP-stimulated O2- formation, Rate: 115 ± 7.6 % of control
[2]
  effect on respiratory burst of peripheral blood neutrophils: no effect
[3]
  inhibition of NADPH oxidase activation, effective concentrations: micromolar concentrations
[3]; Homo sapiens, HL-60, 10 μM compactin, response to FMLP or PMA, read-out: inhibition of O2- formation
  inhibition at 10 µM: > 85%
[3]; Homo sapiens, DMSO-differentiated HL-60, response to FMLP or PMA, read-out: half-maximal inhibition of O2- formation
  IC50: 400 to 2000 nM
[3]; response to receptor stimuli and downstream activators
  ability of HL-60 cells to generate O2-: markedly inhibited
